What is called IC50 is the concentration needed to halve the response being measured.

The text below walks through data of ChEMBL document CHEMBL1938271, “Dimeric ent-kaurane diterpenoids from Isodon excisus” (J Nat Prod, 2011).

Some results are limits rather than exact numbers.

The subject of the assay is RAW264.7. As to the kind of experiment: Antiinflammatory activity in mouse RAW264.7 cells assessed as inhibition of LPS-stimulated nitric oxide production. Format: functional, cell-based.

Regarding `N=C(N)NN` [PIMAGEDINE], the IC50 turned out to be 27.5 µM.
Next, `CC(=O)O[C@H]1C[C@H]2C[C@@]3(CC(=O)[C@@H]4C(C)(C)[C@@H](OC(C)=O)C[C@H](O)[C@@]4(C)[C@H]13)C(=O)O[C@]1(CCC2=O)C(=O)[C@]23C[C@@H]1C[C@H](OC(C)=O)[C@H]2[C@@]1(C)[C@H]([C@@H](O)C3)C(C)(C)[C@@H](OC(C)=O)C[C@@H]1O` (relative stereo): more than 50 µM; `CC(=O)O[C@H]1C[C@H]2C[C@@]3(C[C@H](O)[C@@H]4C(C)(C)[C@@H](OC(C)=O)C[C@H](O)[C@@]4(C)[C@H]13)C(=O)[C@]2(O)CC[C@@]1(O)C(=O)[C@]23C[C@@H]1C[C@H](O)[C@H]2[C@]1(C)[C@@H](OC(C)=O)C[C@H](OC(C)=O)C(C)(C)[C@H]1[C@@H](O)C3` (relative stereo): more than 50 µM; `CC(=O)O[C@H]1C[C@H]2C[C@@]3(C[C@H](O)[C@@H]4C(C)(C)[C@@H](OC(C)=O)C[C@H](O)[C@@]4(C)[C@H]13)C(=O)O[C@]1(CCC2=O)C(=O)[C@]23C[C@@H]1C[C@H](OC(C)=O)[C@H]2[C@@]1(C)[C@H]([C@@H](O)C3)C(C)(C)[C@@H](OC(C)=O)C[C@@H]1O` (relative stereo): more than 50 µM.
Turning to `CC(=O)O[C@H]1C[C@H]2C[C@@]3(CC(=O)[C@@H]4C(C)(C)[C@@H](OC(C)=O)C[C@H](O)[C@@]4(C)[C@H]13)C(=O)[C@]21CCC(=O)[C@H]2C[C@H](OC(C)=O)[C@@H]3[C@](C2)(C[C@H](O)[C@@H]2C(C)(C)[C@@H](OC(C)=O)C[C@H](O)[C@]23C)C(=O)O1` (relative stereo), the IC50 was more than 50 µM.
Regarding `CC(=O)O[C@H]1C[C@H]2C[C@@]3(C[C@H](O)[C@@H]4C(C)(C)[C@@H](OC(C)=O)C[C@H](O)[C@@]4(C)[C@H]13)C(=O)[C@]21CCC2=C(O1)[C@]13C[C@@H]2C[C@H](OC(C)=O)[C@H]1[C@@]1(C)[C@H]([C@@H](O)C3)C(C)(C)[C@@H](OC(C)=O)C[C@@H]1O` (relative stereo), the IC50 is more than 50 µM.
